Data set [1] in a line: method code SF-AS, from DOI: 10.1562/0031-8655(2003)0780411sacotn2.0.co2, PMID: 14626671. The settings on record: pH 6.8.
Data set [2] is described as follows: method code SF-AS, from DOI: 10.1021/jm0401006, PMID: 15481980. The settings on record: pH 7.4.
Test in data set [3]: not given
The source holds these as a separate data set.

Test in data set [4]: not given
This is another data set of the same source.

Test in data set [5]: not given
This is another data set of the same source.

Test in data set [6]: not given
This is another data set of the same source.

Data set [7] in a line: method code SF-RC, from DOI: 10.1002/jps.2600770619, PMID: 3171939. The settings on record: pH 2.0.
Data set [8] is described as follows: method code SF-RC, from DOI: 10.1016/j.nucmedbio.2014.03.016, PMID: 24776092. The settings on record: pH 7.4.
Data set [9] is described as follows: method code SF-AS, from DOI: 10.1016/s0960-894x(99)00527-2, PMID: 10571171. The settings on record: pH 7.0.
Test in data set [10]: not given
This is another data set of the same source.

Test in data set [11]: not given
The source holds these as a separate data set.

The nature of data set [12]: method code SF-RC, from PMID: 3346819. The settings on record: pH 7.4.
Test in data set [13]: not given
The source holds these as a separate data set.

Test in data set [14]: not given
The source holds these as a separate data set.

A short description of data set [15]: method code SF-AS, from DOI: 10.1002/qua.560100722. The settings on record: pH 7.8.
Data set [16] is described as follows: method code SF-AS, from DOI: 10.1562/0031-8655(2002)076<0127:dlbcop>2.0.co;2, PMID: 12194207. The settings on record: pH 7.3.
The nature of data set [17]: method code SF, from DOI: 10.1016/s0928-0987(97)10019-7. The settings on record: pH 7.4.
A short description of data set [18]: method code SF, from Moerlein, M.; Dischino, D.; Raymond, N.; Weitl, L.; Welch, J. (1982). Factors affecting the cerebral uptake of gallium complexes. J Labelled Comp Radiopharm, 19(11-12)1421-1422. The settings on record: pH 7.0.
Data set [19] in a line: method code SF-AS, from DOI: 10.1021/jm00371a014, PMID: 6716401. The settings on record: pH 7.4.
For data set [20] the following is noted: pH 7.4.
Data set [21] in a line: method code SF, from DOI: 10.1021/jm00079a001, PMID: 1732531. The settings on record: pH 7.4.
Test in data set [22]: not given
This is another data set of the same source.

Test in data set [23]: not given
The source holds these as a separate data set.

Test in data set [24]: not given
This is another data set of the same source.

Test in data set [25]: not given
This is another data set of the same source.

Data set [26] in a line: method code SF-RC, from DOI: 10.1002/jps.2600730807, PMID: 6491907.
Test in data set [27]: not given
The source holds these as a separate data set.

The nature of data set [28]: method code AS, from DOI: 10.1081/jlc-120022394.
The nature of data set [29]: method code SF, from DOI: 10.1016/0378-5173(85)90077-8.
Test in data set [30]: not given
This is another data set of the same source.

*1 amine or outer side, *2 acyl side, *3 side chain or, on linkers, in order; H or OH if unused. Positions of bridges follow the written chain, without caps; N, C: chain ends. Where a SMILES comes first, the peptide text is derived from it. Residues, ends and D or L forms follow the SMILES beside them. [ ]: non-standard residue; d: D form. The star is where a group is joined. X1 = CC(C)C[C@H](N[*:1])[C@@H](O)C[C@H](C(=O)[*:2])C(C)C; NMeH = CN[C@@H](Cc1c[nH]cn1)C(=O)O; NHCH2(2-pyridyl) = c1ccc(CN*)nc1; Boc = CC(C)(C)OC(=O)*

What is called logP is the decadic logarithm of the partition coefficient of the neutral form, usually between octanol and water. On to `C=CC[C@@H]1/C=C(\C)C[C@H](C)C[C@H](OC)[C@H]2O[C@@](O)(C(=O)C(=O)N3CCCC[C@H]3C(=O)O[C@H](/C(C)=C/[C@@H]3CC[C@@H](O)[C@H](OC)C3)[C@H](C)[C@@H](O)CC1=O)[C@H](C)C[C@@H]2OC`, for which the logP amounted to 3.3.

Broadly, the logD is the decadic logarithm of the distribution of all forms, ionised or not, between an organic phase and buffer at a given pH. Read a high logD as a more lipophilic compound. The molecule `COc1c(O)c2c(=O)cc(OC)c3c4c(OC)cc(=O)c5c(O)c(NCCN6CCOCC6)c6c(c(c1C(C(C)=O)=C(C)C6)c23)c54` displayed a logD in [1] of 1.15.

As for `CCOC(=O)c1cnc2c(c(C)nn2C)c1Nc1ccc(OC(C)=O)cc1`, in [2], the logD came out at 1.67.

In data set [3], `CO[C@H]1C=CO[C@@]2(C)Oc3c(C)c(O)c4c(c3C2=O)C(=O)/C(=C/NN2CCN(C3CCCC3)CC2)C(=C4O)NC(=O)/C(C)=C\C=C/[C@H](C)[C@H](O)[C@@H](C)[C@@H](O)[C@H](C)[C@H](OC(C)=O)[C@H]1C` showed a logP of 1.24.

As to `CCC(C(=O)OCc1ccc(COC(=O)C(CC)C(COC(=O)c2ccccc2)Cc2cncn2C)cc1)C(COC(=O)c1ccccc1)Cc1cncn1C` (stereo unspecified), the lipophilicity (logP) in data set [4] was found to be 6.37.

In data set [5], `COC(=O)[C@H](Cc1ccccc1)NC(=O)[C@H](Cc1ccccc1)NC(=O)[C@@H](NC(=O)[C@H](CC(C)C)NC(=O)[C@H](CCCCNC(=O)OCc1ccccc1)NC(=O)OC(C)(C)C)C(C)C` had a logP of 7.62.

The molecule `CCn1c(=O)c2c(nc(C=Cc3ccc(C(=O)OCCOCCOCCOCCOCCOCCOCCOCCOCCOC)c(OC)c3)n2C)n(CC)c1=O` showed a logP in [6] of 2.8.

With `CC1(C)C(OC(=O)CCC(=O)O)CC[C@@]2(C)[C@H]1CC[C@]1(C)[C@H]2C(=O)C=C2[C@@H]3C[C@@](C)(C(=O)O)CC[C@]3(C)CC[C@]21C` (stereo partly specified), the logD in data set [7] worked out at 2.81.

For the molecule `C[C@H](CCC(=O)NCc1cn(CCF)nn1)[C@H]1CC[C@H]2[C@@H]3[C@H](O)C[C@@H]4C[C@H](O)CC[C@]4(C)[C@H]3CC[C@]12C`, in data set [8], the log distribution coefficient (logD) worked out at 1.61.

`O=C(NCCN(CCNC(=O)c1ccc2cccnc2c1O)CCNC(=O)c1ccc2cccnc2c1O)c1ccc2cccnc2c1O` registered a logD in [9] of 1.

In turn, `CC1(C)CC[C@]2(C(=O)O)CC[C@]3(C)C(=CC[C@@H]4[C@@]5(C)CC[C@H](O)C(C)(C)[C@@H]5CC[C@]43C)[C@@H]2C1` returned a lipophilicity (logP) in [10] of 3.63.

Regarding `CC[C@H](C)[C@H](NC(=O)[C@@H](C[C@H](O)[C@H](CC(C)C)NC(=O)[C@H](Cc1cnc[nH]1)N(C)C(=O)[C@H](Cc1ccccc1)NC(=O)[C@@H]1CCCN1C(=O)OC(C)(C)C)C(C)C)C(=O)NCc1ccccn1` (Boc-PF[NMeH][X1]I-{NHCH2(2-pyridyl)}), in data set [11], the logP was 4.2.

For the molecule `CC(CNC(=O)c1ccccc1)C(=O)OCC(=O)C12OC(C)(C)OC1CC1C3CCC4=CC(=O)C=CC4(C)C3(F)C(O)CC12C` (stereo unspecified), the logD in data set [12] came to 2.3.

Molecule `CCCC(=O)O[C@H]1[C@H](C)O[C@@H](O[C@H]2[C@H](N(C)C)[C@@H](O)[C@H](O[C@H]3[C@@H](CC=O)C[C@@H](C)[C@@H](O)/C=C/C=C/C[C@@H](C)OC(=O)C[C@@H](O)[C@@H]3OC)O[C@@H]2C)C[C@@]1(C)OC(=O)CC` showed a logP in data set [13] of 3.08.

As to `Cc1ccccc1Nc1nc2ccc(C(=O)NC(CCCCNC(=O)C=Cc3cccnc3)C(=O)NC(CCCC(=O)O)C(=O)NC3(C(N)=O)CCCCC3)cc2[nH]1` (stereo unspecified), in data set [14], the lipophilicity (logP) was 1.88.

As for `COc1cccc2c1C(=O)c1c(O)c3c(c(O)c1C2=O)CC(O)(C(C)=O)CC3OC1CC(NC(=O)CNC(=O)CN(C)C)C(O)C(C)O1` (stereo unspecified), the logD in data set [15] was 1.12.

Consider `COC(=O)CCC1=C(C)c2cc3cc(C)c(cc4cc(C)c(cc5nc(cc1n2)C(CCC(=O)OC)=C5C)[nH]4)[nH]3`, for which the logD in data set [16] was 3.95.

With `CC(C)(C)S(=O)(=O)C[C@@H](Cc1ccccc1)C(=O)N[C@@H](Cc1cnc[nH]1)C(=O)N[C@@H](CC1CCCCC1)[C@@H](O)[C@@H](O)C1CC1`, the logD in [17] turned out to be 2.75.

Consider `CCCCCCCCN(CCCCN(CCCN(CCCCCCCC)C(=O)c1cccc(O)c1O)C(=O)c1cccc(O)c1O)C(=O)c1cccc(O)c1O`, for which the logD in data set [18] stood at 0.51.

For the molecule `COc1cccc2c1C(=N)c1c(O)c3c(c(O)c1C2=O)C[C@](O)(C(=O)CO)C[C@@H]3O[C@H]1C[C@@H](N2CCOC[C@@H]2C#N)[C@@H](O)[C@@H](C)O1`, the logD in [19] was determined as 1.97.

With `CCN1CC(C(O)C(CC2CCCCC2)NC(=O)C(Cc2cscn2)NC(=O)C(CC(=O)N2CCOCC2)Cc2ccccc2)OC1=O` (stereo unspecified), the logD in [20] worked out at 2.83.

For `C=CCC(NC(=O)C(Cc1ccccc1)NS(=O)(=O)N1CCOCC1)C(=O)NC(CC1CCCCC1)C(=O)C(F)(F)C(=O)NCC(C)CC` (stereo unspecified), the logD in data set [21] was 4.63.

In the case of `CO[C@@H](CC[C@H](C)[C@H]1O[C@@]23CC(OC(=O)C[C@H]([C@@H](C)O)OC(=O)C[C@](O)(O2)[C@H](C)CC3(C)C)[C@@H]1C)c1cc(O)ccc1Br`, the logP in data set [22] is 5.4.

For `CC[C@H](C)[C@@H]1NC(=O)[C@H](Cc2ccc(O)cc2)NC(=O)[C@@H](N)CSSC[C@@H](C(=O)N2CCC[C@H]2C(=O)N[C@@H](CCCN=C(N)N)C(=O)NCC(N)=O)NC(=O)[C@H](CC(N)=O)NC(=O)[C@H](CCC(N)=O)NC1=O` (H-CYIQNCPRG-NH2; disulfide 1-6), the logP in data set [23] is -1.62.

In [24], `COc1cc(CN2C(=O)N(Cc3cccc(C(=O)Nc4cnc(C)cn4)c3)C(Cc3ccccc3)C(O)C(O)C2Cc2ccccc2)cc(OC)c1` (stereo unspecified) returned a logP of 5.59.

Take `CC(C)(C)NC(=O)[C@@H]1C[C@@H]2CCCC[C@@H]2CN1C[C@@H](O)[C@H](Cc1ccccc1)NC(=O)[C@H](CC(N)=O)NC(=O)c1ccc2ccccc2n1`: in data set [25], the logP was 3.

For `CC1OC(OC2C(O)CC(OC3C(O)CC(OC4CCC5(C)C(CCC6C5CC(O)C5(C)C(C7COC(=O)C7)CCC65O)C4)OC3C)OC2C)CC(O)C1O` (stereo unspecified), the logP in [26] came to 1.25.

With `CCCN(CCC)C(=O)Cc1c(-c2ccc(OC(=O)NCCc3ccc(O)c(O)c3)cc2)nc2ccc(Cl)cn12`, the logP in data set [27] was found to be 4.3.

In [28], `CCOC(=O)C(=Cc1ccc(Cl)cc1)NC=O` returned a logP of 2.65.

Regarding `CCCCCCCC(=O)OCC(=O)[C@@]1(O)CC[C@H]2[C@@H]3CCC4=CC(=O)CC[C@]4(C)[C@H]3C(=O)C[C@@]21C`, the logP in [29] worked out at 4.22.

Molecule `COc1ccc(C2(O)OC(=O)C(c3ccc4c(c3)OCO4)=C2Cc2cc(OC)c(OC)c(OCCOCCOCCOCCOCc3cn(C4OC(CO)C(O)C(O)C4F)nn3)c2)cc1` (stereo unspecified) registered a logP in data set [30] of -0.4.
